No end group written: not given here.
Legend:
[1] = system: HEK-WT cells; experiment: Flow cytometry cell binding and uptake of Cy5.5 labeled peptides, HEK-WT cells; assay type: cell-based, human; conditions: Cy5.5 labeled peptides 5 µM, 1 h, 37 °C
Description: Next, we labeled R5, R14 peptides with Cy5.5 to examine their in vitro binding efficacy and specificity compared with AC253 in HEK-AMY3 cells using flow cytometry and fluorescence microscopy (Fig. 1A,C).
For flow cytometry studies, HEK-AMY3 cells were used to determine cell binding and uptake and binding of Cy5.5 labeled AC253, and R5, R14, R11 fragments. Cell were plated at a density of 1.5 × 10^5 cells/well and cultured overnight in 12-well plates at 37 °C. Peptides (5 µM) were added and incubated for 1 h at 37 °C in serum free media. The culture media was then discarded, and cell monolayers were washed with PBS containing 2 mM EDTA and 0.5% BSA adjusted to pH 7.4 at 37°C, then cells were washed again with cold buffer and incubated with 0.25% trypsin to remove cell surface–associated fluorophores. Cells were then dispersed in FACS solution (10% FBS in PBS), and analyzed using a FACSCanto II flow cytometer (BD Biosciences, USA) selecting a detection window between 720 and 840 nm, and fluorescence histograms and dot plots were generated using FLOWJO software (Tree Star, Inc, USA). At least 10,000 gated events per sample were analyzed to develop the histogram. HEK-WT cells was used as negative control.

[2] = system: hippocampal LTP (CA1); experiment: Hippocampal long-term potentiation (LTP) in slices from wild type mice; parameters: species or system mouse
Description: (§1) We examined whether the peptide fragments were capable of influencing Aβ- or hAmylin-induced reduction of hippocampal LTP in mice. Exposure of hippocampal slices from wild-type mice to hAmylin (50 nM) or Aβ (50 nM) depressed LTP induced by a weak tetanization protocol at the CA1 region as previously reported[20],[30]. To determine whether peptides affected hAmylin or Aβ- induced depression of LTP, we applied 250 nM R5 or R14 continuously for 5 min prior to exposure of the hippocampal slices to 50 nM hAmylin or Aβ and the subsequent LTP induction. […] We therefore sought to determine whether peptide fragments were also capable of improving LTP levels in the same TgCRND8 AD mouse model. […] Importantly, doses of the short peptide fragments used in these experiments were equimolar to those used for AC253 and pramlintide in our previous studies[20],[30].
For electrophysiology experiment, hippocampal slices (400-μm thick) were prepared using a vibratome from wild type and TgCRND8 mice (8 month of age, male or female). For long-term potentiation (LTP) measurement, the stimulus strength was set to elicit 40–50% of the maximum fEPSP (field excitatory postsynaptic potential) amplitude and test pulses were delivered once every 30s. LTP was induced by 3-theta-burst stimulation protocol (each burst consisted of four pulses at 100 Hz with a 200-ms interburst interval). All drugs and chemicals were applied directly to the slice via bath perfusion.
Brains were quickly removed from mice following decapitation, placed in a cold artificial cerebral spinal fluid (aCSF) on a vibratome chamber, and transverse sections cut through the hippocampus. The aCSF contained (in millimolar 124 NaCl, 3 KCl, 2.4 CaCl2, 2 MgCl2, 1.25 NaH2PO4, 26 NaHCO3, and 10 D-glucose and was equilibrated with 95 % O2 and 5 % CO2. Hippocampal slices (400-μm thick) were maintained in aCSF-filled holding chamber at room temperature for at least 1 h and individually transferred to the submerged glass bottom recording chamber, which was constantly perfused with aCSF (2 ml/min) at 30 °C. Field excitatory postsynaptic potential (fEPSP) was recorded with a metallic (Pt/Ir) electrode (FHC, Bowdoin, ME) from the stratum radiatum layer of Cornu ammonis 1 region of the hippocampus (CA1) area, and the Schaffer collateral afferents were stimulated with 100-μs test pulses via a bipolar cluster electrode (FHC). For long-term potentiation (LTP) experiments, the stimulus strength was set to elicit 40–50 % of the maximum fEPSP amplitude and test pulses were delivered to Schaffer collaterals once every 30 s. […] Before 3-TBS or drug application, the responses were monitored for at least 10 min to ensure a stable baseline of fEPSP. […]

[3] = In vitro proteolytic stability in human serum; assay type: in vitro ADME; conditions: 37°C, intact peptide at different time points estimated by RP-HPLC
Description: Subsequently, we investigated the proteolytic stability of R5, and R14 compared to AC253. […] By assessing the main degradation fragments for both peptides using MALDI-TOF, we found both peptides to be cleaved at the basic arginine amino acids.
Supplementary Figure S2: The comparison of bio-distribution for the fragments and their parent peptide. (A) Ex vivo fluorescence showing bio-distribution images for Cy5.5-R5, R14, AC253 in different organs at after a 2 h of a single ip injection of the peptides (0.1 mmol in 200µl saline). (B) Quantification of peptides fluorescence in each organ (n=3). (C) In vitro stability of R5, R14, and AC253 peptides in human serum compared with AC253 at 37°C. The amount of intact peptide in human serum at different time points was estimated using RP-HPLC.

[4] = system: hippocampal LTP (CA1); experiment: Hippocampal LTP in slices from 8 month old TgCRND8 mice; parameters: species or system mouse; conditions: n = 6 recordings
Description: as §1
For electrophysiology experiment, hippocampal slices (400-μm thick) were prepared using a vibratome from wild type and TgCRND8 mice (8 month of age, male or female). […]
Brains were quickly removed from mice following decapitation, placed in a cold artificial cerebral spinal fluid (aCSF) on a vibratome chamber, and transverse sections cut through the hippocampus. […] Before 3-TBS or drug application, the responses were monitored for at least 10 min to ensure a stable baseline of fEPSP. […]

With “LGRLSQELHRLQTYPRTNTGSNTY-NH2 (C-terminus assumed) [AC253, reference compound]” as the substance, how does the “binding and uptake in HEK-WT cells compared to HEK-AMY3 cells” value [1] read?
Its value is “reduced binding and uptake”.

For SQELHRLQTYPR-NH2 [R5], which “effect of peptide alone on hippocampal LTP” value ([2]; wild type mouse slices, 250 nM) is on record?
Its value is “did not impair LTP”.

What about the “effect on Aβ-induced depression of hippocampal LTP” value ([2]; wild-type mouse slices, peptide 250 nM for 5 min before Aβ1–42 50 nM, n = 6 recordings) of the same substance?
Its value is “reversed”.

What about the “effect on hAmylin-induced depression of hippocampal LTP” value ([2]; wild-type mouse slices, peptide 250 nM for 5 min before hAmylin 50 nM, n = 6 recordings) of the same substance?
The value was “reversed”.

And the half-life [3]?
The half-life was 1 h.

And the “effect on chronically depressed LTP in TgCRND8 slices” value [4]?
The value was “significant increase in LTP”.
